{"source": "patent US9063122B2", "about": "“Biomodulators for treatment or prevention of disease” (priority 2008, dated 2015)", "key": {"[1]": {"test_system": "C33A cervical carcinoma cells", "experiment": "Cellular ATP level (ViaLight) cell viability assay", "type": "cell-based", "settings": "0.5 μM, 72 hours after treatment", "source_text": "(§1) Selected cell lines include C33A cervical carcinoma cells, Mrc-5 normal lung fibroblasts, PC-3 human prostatic carcinoma cell line, OVCAR-3 human ovarian carcinoma cell line, H460 non-small cell lung cancer cell line, A549 human lung carcinoma cell line, H1299 human non-small cell lung cancer cells, MCF-7 human breast cancer cell line, SW-480 human adenocarcinoma cell line, B16-F1 mouse melanoma cell line (American Type Culture Collection, Manassas, Va., USA), HMEC normal mammary epithelial cells (Clonetics San Diego, Calif., USA) and ADR-RES human breast cancer cell line (NCI, MD, USA), which are cultured in the media recommended by the American Type Culture Collection. The cell lines are plated in 96-well microliter plates (PerkinElmer Life Sciences Inc., Boston, Mass., USA) at a confluency that allows them to reach confluence after 4 days of growth. One day after plating, the cells are treated with various concentrations of biomodulator. Stock solutions of the biomodulator are prepared in dimethyl sulfoxide (Sigma-Aldrich Inc., St. Louis, Mo., USA), diluted in the recommended media and then added to the cells. The total dimethyl sulfoxide on the cells is 1%. After 3 days of incubation the ATP levels in the cells are quantified using a luminescent ViaLight detection system (Bio-Whittaker, MD, USA). […]"}, "[2]": {"test_system": "H1299 human non-small cell lung cancer cells", "experiment": "Cellular ATP level (ViaLight) cell viability assay", "type": "cell-based", "settings": "0.5 μM, 72 hours after treatment", "source_text": "as §1"}, "[3]": {"test_system": "ten different cancer cell lines", "experiment": "Cellular ATP level (ViaLight) assay, panel of cancer cell lines", "type": "cell-based", "settings": "various concentrations", "source_text": "as §1"}, "[4]": {"test_system": "murine colonic tumor, colon 26", "experiment": "Treatment of colon 26 tumors in mice", "type": "in vivo, CDF1 mice", "settings": "1 mg in 1 ml on days 7, 11 and 15, under the skin of the back and into tail vein; palpation", "protocol": "Treatment of tumors in mice. A pharmaceutical composition of biomodulator 3-indolyl-acetic acid, or 6-furfurylaminopurine are prepared at 10 mg in 10 ml of physiological saline. 10 mg of a murine colonic tumor, colon 26, is inoculated under the skin of the back of CDF1 mice (day 0). After one week, the tumor is measured to calculate the volume of the tumor and the mice are classified into several groups (each group: n=5). On days 7, 11 and 15, the tumor-inoculated mice are bolusly injected under the skin of their backs and into their tail veins with 1 mg of the biomodulator in a volume of 1 ml. Control and comparative groups of mice are similarly injected with saline. Complete regression of the colonic tumor is determined by palpation. Subjects in which the tumor […] by palpation on the 60th day are deemed to have their tumors cured completely."}, "[5]": {"test_system": "fibroblasts in human skin", "settings": "cited from earlier work"}, "[6]": {"test_system": "human myeloid leukaemia cells", "settings": "cited from earlier work"}, "[7]": {"test_system": "white cells", "settings": "in vitro; cited from earlier work"}, "[8]": {"test_system": "C2C12 muscle stem cells", "experiment": "C2C12 muscle stem cell culture with immunocytochemistry (Pax7, MyoD, Ki67, MHC)", "type": "cell-based", "settings": "for number of stem cells in culture: FIG. 2, TIBA at low to mid-level concentrations (range tested 0.0001-0.1 μg/ml)", "protocol": "(§2) Reagents: The auxin 2,4-Dichlorophenoxyacetic acid, and auxin antagonist, TIBA (2,3,5-triiodobenzoic acid), are purchased from Sigma-Aldrich (St. Louis, Mo.), After dissolving, these compounds are stored at −20° C. Concentrations used are 0.0001, 0.001, 0.01 and 0.1 μg/ml.\nC2C12 muscle stem cells are used. Cells from low-passage frozen stocks are seeded in a 10 cm culture dish. After reaching 60% confluence, cells are passaged into an 8-well chamber slide (BD Biosciences, CA, USA). C2C12 cells are seeded on an 8-well chamber slide (3.5×10^3 cells/well). On day 3 after exposure to biomodulator or control, cells are fixed for immunocytochemistry (ICC) of MyoD and Ki67. For MHC and Pax7 immunostaining, cell culture media is replaced from the growth media (GM) to the differentiation media (DM) to induce terminal differentiation at day 5, and then cells are fixed for ICC of MHC and Pax7 at day 8. Media change and compound administration are performed daily.\nFor ICC, cells are fixed with 4% paraformaldehyde (PFA)/PBS for 20 min at ambient temperature. After being washed with PBS, cells are soaked in 0.1% Triton-X/PBS for 15 min at RT and blocked with 5% normal goat serum (NGS)/PBS to inhibit non-specific binding of antibodies for 60 min at ambient temperature. Primary antibodies are applied, and cells are incubated overnight at 4° C. The primary antibodies are anti-Pax7 mouse monoclonal (Developmental Studies Hybridoma Bank (DSHB), IA), anti-MyoD mouse monoclonal (DSHB), anti-Myosin Heavy Chain mouse monoclonal (MF20; DSHB) and anti-Ki67 rabbit polyclonal (Thermo Fisher Scientific, CA) antibodies."}, "[9]": {"test_system": "C2C12 muscle stem cells", "experiment": "WST-1 cell growth assay", "type": "cell-based", "settings": "day 3; 0.001 μg/ml and 0.0001 μg/ml", "protocol": "as §2\nCell growth parameters are measured by WST assay. Cell proliferation reagent WST-1 is purchased from Roche (NJ). Assays are performed according to the manufacturer's protocol. Cells are seeded on a 96-well cell culture plate (1.5×10^3 cells/well), and absorbance (A450-A690) is measured at day 3."}, "[10]": {"test_system": "cardiac cells (myoblasts)", "settings": "cited from earlier work"}}, "data": [{"smiles": "O=C(O)Cc1c[nH]c2ccccc12", "note": "[3-indolyl-acetic acid]", "values": [{"measurement": "lowering of ATP levels compared with normal cell lines HMEC and MRC-5", "setting": "[1]", "result": "significantly more effective at lowering ATP levels"}, {"measurement": "lowering of ATP levels compared with normal cell lines HMEC and MRC-5", "setting": "[2]", "result": "significantly more effective at lowering ATP levels"}, {"measurement": "decrease of cellular ATP levels compared with HMEC normal mammary epithelial cell line", "setting": "[3]", "result": "greater efficacy in decreasing cellular ATP levels"}, {"measurement": "tumor regression", "setting": "[4]", "result": "produces tumor regression"}]}, {"smiles": "c1coc(CNc2ncnc3nc[nH]c23)c1", "note": "[6-furfurylaminopurine]", "values": [{"measurement": "tumor regression", "setting": "[4]", "result": "produces tumor regression"}, {"measurement": "life span of fibroblasts", "setting": "[5]", "result": "prolongs the life span of fibroblasts"}, {"measurement": "granulocytic differentiation and apoptosis", "setting": "[6]", "result": "induction of granulocytic differentiation"}]}, {"smiles": "CC1=CC(=O)CC(C)(C)[C@@]1(O)/C=C/C(C)=C\\C(=O)O", "note": "[ABA, Abscisic acid]", "values": [{"measurement": "phagocytosis in white cells", "setting": "[7]", "result": "stimulation of phagocytosis"}]}, {"smiles": "O=C(O)c1cc(I)cc(I)c1I", "note": "[TIBA, 2,3,5-triiodobenzoic acid]", "values": [{"measurement": "number of stem cells in culture", "setting": "[8]", "result": "reduces the number of stem cells"}, {"measurement": "myotube formation", "setting": "[8]; FIG. 6, increased concentrations of TIBA", "result": "increased myotube formation"}, {"measurement": "number of MyoD positive myoblasts", "setting": "[8]; day 3", "result": "dose-dependent decrease"}, {"measurement": "cell number, WST-1 cell growth assay", "setting": "[9]", "result": "increases cell number"}]}, {"smiles": "O=C(O)COc1ccc(Cl)cc1Cl", "note": "[auxin, 2,4-Dichlorophenoxyacetic acid]", "values": [{"measurement": "number of stem cells in culture", "setting": "[8]", "result": "opposite that of TIBA"}, {"measurement": "global cell proliferation", "setting": "[8]; FIG. 4, high Auxin concentrations", "result": "reduced"}, {"measurement": "myotube formation", "setting": "[8]; FIG. 5, low auxin concentration", "result": "increase"}, {"measurement": "myotube formation", "setting": "[8]; FIG. 5, mid to high auxin concentration (0.01 μg/ml)", "result": "reduced"}]}, {"smiles": "c1nc2nc(Nc3ccc(N4CCOCC4)cc3)nc(NC3CCCCC3)c2[nH]1", "note": "[reversine]", "values": [{"measurement": "de-differentiation of cells", "setting": "[10]", "result": "de-differentiate into osteoblasts and adipocytes"}]}]}
